Measured values as given in patent US6593334B1, “Camptothecin-taxoid conjugates as antimitotic and antitumor agents” (The University of North Carolina at Chapel Hill, priority 2002, dated 2003).

What was measured:
[1] = test system: 1A9 (ovarian carcinoma); assay: Human tumor cell replication assay (sulforhodamine B), 1A9; format: cell-based; conditions: IA9 cells; for Cell Line/ED50 IA9: three days of continuous exposure, SRB assay
Description: (§1) Human Tumor Cell Replication Assay. Compounds were tested as inhibitors of cell growth against a limited panel of solid tumor lines including KB (epidermoid carcinoma, CL 17) and a camptothecin-resistant sub-line called KB-CPT; HCT-8 (ileocecal adenocarcinoma, CCL 244); MCF-7 (breast adenocarcinoma, HTB 22); PC-3 (prostate adenocarcinoma, CRL 1435); 1A9 (ovarian carcinoma) and a paclitaxel resistant sub-line called PTX10 with mutated β-tubulin. Drug-resistant cell lines were generous gifts of Dr. Y. C. Cheng (Yale University, New Haven, Conn.) and Dr. P. Giannakakou (NIH, Bethesda, Md.). Cell lines were adapted for growth in RPMI-1640 medium supplemented with 25 mM Hepes, 2% NaHCO3, 10% (v/v) fetal calf serum and 100 μg/mL kanamycin. Cultures were maintained in a 5% CO2 atmosphere at 37° C. The sulforhodamine B microtiter plate assay described by Rubinstein et al. (1990) J. Natl. Cancer Inst. 82:1113, was used to evaluate compounds as inhibitors of cell replication. The ED50 value, the concentration of compound that inhibited cell line replication by 50% relative to control after three days of continuous exposure was interpolated from dose-response graphs fitted to data using Prizm (GraphPad software, San Diego, Calif.).
(§2) The five conjugates (16-20) were tested for cytotoxicity against a panel of human tumor cell lines (HTCL) including paclitaxel-resistant and camptothecin-resistant derivatives as described in Rubinstein et al. (1990) J. Natl. Cancer Inst. 82:1113. The results are shown in Table 2 with the values for paclitaxel (1) and camptothecin (2) given for comparison.

[2] = test system: PC-3 (prostate adenocarcinoma); assay: Human tumor cell replication assay (sulforhodamine B), PC-3; format: cell-based; conditions: PC-3 cells, three days of continuous exposure, SRB assay
Description: as §1, §2

[3] = test system: MCF-7 (breast adenocarcinoma); assay: Human tumor cell replication assay (sulforhodamine B), MCF-7; format: cell-based; conditions: MCF-7 cells, three days of continuous exposure, SRB assay
Description: as §1, §2

[4] = test system: HCT-8 (ileocecal adenocarcinoma); assay: Human tumor cell replication assay (sulforhodamine B), HCT-8; format: cell-based; conditions: HCT8 cells, three days of continuous exposure, SRB assay
Description: as §1, §2

[5] = test system: 1A9-PTX10 (paclitaxel resistant sub-line with mutated β-tubulin); assay: Human tumor cell replication assay (sulforhodamine B), PTX10; format: cell-based; conditions: paclitaxel-resistant IA9-PTX10 cells, three days of continuous exposure, SRB assay
Description: as §1, §2

[6] = test system: KB (epidermoid carcinoma); assay: Human tumor cell replication assay (sulforhodamine B), KB; format: cell-based; conditions: KB cells; for Cell Line/ED50 KB: three days of continuous exposure, SRB assay
Description: as §1, §2

[7] = test system: human tumor cell lines (HTCL); assay: Human tumor cell line (HTCL) panel, mean over lines; format: cell-based; conditions: mean from HTCL data, does not include values for drug-resistant variants
Description: as §1, §2

[8] = test system: KB-CPT (camptothecin-resistant KB sub-line); assay: Human tumor cell replication assay (sulforhodamine B), KB-CPT; format: cell-based; conditions: camptothecin-resistant KB-CPT cells, three days of continuous exposure, SRB assay
Description: as §1, §2

[9] = biological target: T1, human DNA Topoisomerase I (Homo sapiens, UniProt P11387); assay: DNA Topoisomerase I activity assay (plasmid DNA relaxation); format: biochemical
T1 construct: purchased TopoGen, Columbus, Ohio
T1 sequence (P11387 1-765): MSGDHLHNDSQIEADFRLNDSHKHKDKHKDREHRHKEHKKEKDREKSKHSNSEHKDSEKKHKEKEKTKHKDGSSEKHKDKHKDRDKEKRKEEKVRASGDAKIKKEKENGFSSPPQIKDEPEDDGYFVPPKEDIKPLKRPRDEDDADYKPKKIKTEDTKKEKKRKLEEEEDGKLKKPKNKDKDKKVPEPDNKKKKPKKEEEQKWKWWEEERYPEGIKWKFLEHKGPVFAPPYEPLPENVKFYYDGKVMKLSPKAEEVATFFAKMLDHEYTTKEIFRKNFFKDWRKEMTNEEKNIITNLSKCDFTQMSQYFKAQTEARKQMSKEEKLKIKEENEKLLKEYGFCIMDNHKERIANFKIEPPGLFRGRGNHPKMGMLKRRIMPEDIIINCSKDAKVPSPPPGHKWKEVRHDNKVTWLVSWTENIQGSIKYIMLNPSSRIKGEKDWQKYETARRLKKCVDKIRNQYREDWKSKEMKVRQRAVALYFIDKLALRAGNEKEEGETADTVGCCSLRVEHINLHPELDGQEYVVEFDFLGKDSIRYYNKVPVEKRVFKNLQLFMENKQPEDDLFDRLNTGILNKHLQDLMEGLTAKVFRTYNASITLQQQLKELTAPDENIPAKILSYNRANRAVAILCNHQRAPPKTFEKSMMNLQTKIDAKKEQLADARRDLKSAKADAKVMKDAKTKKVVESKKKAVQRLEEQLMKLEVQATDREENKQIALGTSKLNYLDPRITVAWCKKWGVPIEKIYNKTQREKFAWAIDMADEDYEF
Description: DNA Topoisomerase I Activity Assay. Compounds were tested as inhibitors of enzyme catalyzed plasmid DNA relaxation. Reactions contained 0.5 μg pBR322 DNA and 0.5 U human DNA Topoisomerase I (TopoGen, Columbus, Ohio), compounds at 50 μM and buffer components described previously in Krishnan et al. (2000) Anticancer Drug Design 15:255. After 15 min at 37° C., reactions were terminated by adding proteinase K (0.1 mg/mL) and 1% (w/v) SDS. After 1 hour at 50° C., DNA was resolved on a 1% (w/v) agarose gel containing […] ethidium bromide in standard TBE buffer, and photographed under UV light using polaroid 667 film.
Conjugates 16-20 were also tested as inhibitors of human DNA topo I activity in vitro (FIG. 4) in the manner as described in Krishnan et al. (2000) Anticancer Drug Design 15:255. […] None of the conjugates inhibited DNA relaxation.

[10] = at lowest test concentration (inhibition >50%)

SMILES: CC[C@@]1(O)C(=O)OCc2c1cc1n(c2=O)Cc2cc3ccccc3nc2-1 [Camptothecin, camptothecin]
- Cell Line/ED50 IA9 [1]: −10.2 log10 M
- Cell Line/ED50 PC-3 [2]: −7.1 log10 M
- Cell Line/ED50 MCF-7 [3]: −7.1 log10 M
- Cell Line/ED50 HCT8 [4]: −9.3 log10 M
- Cell Line/ED50 IA9-PTX10 [5]: −9.4 log10 M
- Cell Line/ED50 KB [6]: −10.8 log10 M
- Mean ED50 [7]: −8.9 log10 M
- Cell Line/ED50 KB-CPT [8]: −7.5 log10 M

SMILES: CCC1(O)C(=O)OCc2c1cc1n(c2=O)Cc2c-1nc1ccccc1c2C=NCCC(=O)OC1CC2OCC2(OC(C)=O)C2C(OC(=O)c3ccccc3)C3(O)CC(OC(=O)C(O)C(NC(=O)c4ccccc4)c4ccccc4)C(C)=C(C(OC(C)=O)C(=O)C12C)C3(C)C (stereo not drawn) [Compound 16]
- observed percentage inhibition (bracketed value) [1, 10]: (76) %
- Cell Line/ED50 IA9 [1]: <−11.0 log10 M
- Cell Line/ED50 PC-3 [2]: −7.0 log10 M
- Cell Line/ED50 MCF-7 [3]: −7.1 log10 M
- Cell Line/ED50 HCT8 [4]: −10.6 log10 M
- Cell Line/ED50 IA9-PTX10 [5]: −10.9 log10 M
- observed percentage inhibition (bracketed value) [6, 10]: (67) %
- Cell Line/ED50 KB [6]: <−11.0 log10 M
- Mean ED50 [7]: <−9.3 log10 M
- inhibition of human DNA topo I activity in vitro [9]: only marginal activity
- Cell Line/ED50 KB-CPT [8]: −11.1 log10 M

SMILES: CCC1(O)C(=O)OCc2c1cc1n(c2=O)Cc2c-1nc1ccccc1c2C=NCCCC(=O)OC1CC2OCC2(OC(C)=O)C2C(OC(=O)c3ccccc3)C3(O)CC(OC(=O)C(O)C(NC(=O)c4ccccc4)c4ccccc4)C(C)=C(C(OC(C)=O)C(=O)C12C)C3(C)C (stereo not drawn) [Compound 17]
- Cell Line/ED50 IA9 [1]: −10.2 log10 M
- Cell Line/ED50 PC-3 [2]: −7.1 log10 M
- Cell Line/ED50 MCF-7 [3]: −7.1 log10 M
- Cell Line/ED50 HCT8 [4]: −10.0 log10 M
- Cell Line/ED50 IA9-PTX10 [5]: −10.5 log10 M
- Cell Line/ED50 KB [6]: −10.4 log10 M
- Mean ED50 [7]: −9.0 log10 M
- inhibition of human DNA topo I activity in vitro [9]: inactive
- Cell Line/ED50 KB-CPT [8]: −9.7 log10 M

SMILES: CCC1(O)C(=O)OCc2c1cc1n(c2=O)Cc2c-1nc1ccccc1c2C=NCCCCCC(=O)OC1CC2OCC2(OC(C)=O)C2C(OC(=O)c3ccccc3)C3(O)CC(OC(=O)C(O)C(NC(=O)c4ccccc4)c4ccccc4)C(C)=C(C(OC(C)=O)C(=O)C12C)C3(C)C (stereo not drawn) [Compound 18]
- Cell Line/ED50 IA9 [1]: −10.0 log10 M
- Cell Line/ED50 PC-3 [2]: −7.5 log10 M
- Cell Line/ED50 MCF-7 [3]: −7.5 log10 M
- Cell Line/ED50 HCT8 [4]: −10.6 log10 M
- Cell Line/ED50 IA9-PTX10 [5]: −10.5 log10 M
- Cell Line/ED50 KB [6]: −9.3 log10 M
- Mean ED50 [7]: −9.0 log10 M
- inhibition of human DNA topo I activity in vitro [9]: only marginal activity
- Cell Line/ED50 KB-CPT [8]: −8.1 log10 M

SMILES: CC(=O)O[C@H]1C(=O)[C@@]2(C)[C@H]([C@H](OC(=O)c3ccccc3)[C@]3(O)C[C@H](OC(=O)[C@H](O)[C@@H](NC(=O)c4ccccc4)c4ccccc4)C(C)=C1C3(C)C)[C@]1(OC(C)=O)CO[C@@H]1C[C@@H]2O [Paclitaxel, reference compound]
- Cell Line/ED50 IA9 [1]: −12.2 log10 M
- Cell Line/ED50 PC-3 [2]: −10.3 log10 M
- Cell Line/ED50 MCF-7 [3]: −13.9 log10 M
- Cell Line/ED50 HCT8 [4]: −7.1 log10 M
- Cell Line/ED50 IA9-PTX10 [5]: −11.7 log10 M
- Cell Line/ED50 KB [6]: −12.1 log10 M
- Mean ED50 [7]: −11.1 log10 M
- Cell Line/ED50 KB-CPT [8]: −12.2 log10 M
